This note sets out measurements from patent US7592344B2, “NK1 and NK2-antagonists and compositions and methods of using the same” (Solvay Pharmaceuticals GmbH, priority 2005, dated 2009).

For series [1], the target named is T1, human NK1 receptor (Homo sapiens, UniProt P25103). The experiment in a line: Binding power to NK1 receptors in vitro ([3H]-Substance P displacement, CHO cell membranes). On the set-up: expressed in transfected cells; host or cells: CHO cells (membrane preparation). The conditions noted are these: human NK1 receptor in CHO membranes, ligand [3H]-Substance P; for Ki: read-out: pKi (NK1) (converted). On the procedure: 1. Determination of the Binding Power of the Test Substances to NK1 Receptors In Vitro.
T1 sequence (P25103 whole entry): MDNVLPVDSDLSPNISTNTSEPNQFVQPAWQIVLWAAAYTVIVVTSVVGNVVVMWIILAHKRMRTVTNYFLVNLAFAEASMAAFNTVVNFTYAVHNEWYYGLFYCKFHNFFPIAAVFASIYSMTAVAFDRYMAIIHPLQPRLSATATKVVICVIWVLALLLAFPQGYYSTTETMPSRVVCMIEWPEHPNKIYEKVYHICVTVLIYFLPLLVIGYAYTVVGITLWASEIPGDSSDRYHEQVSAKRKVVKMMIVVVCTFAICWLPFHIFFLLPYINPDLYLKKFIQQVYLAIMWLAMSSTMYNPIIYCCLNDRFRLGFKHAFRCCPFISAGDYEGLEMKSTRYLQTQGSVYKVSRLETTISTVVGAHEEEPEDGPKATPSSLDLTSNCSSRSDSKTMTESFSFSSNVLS
Affinity of the test substances to human NK1 receptors was measured in vitro.
The receptor binding studies were performed with [^3H]-Substance P as ligand. For the binding test, different samples of a membrane preparation of CHO cells (=egg cells of the Chinese hamster, […]), which express the human NK1 receptor (“Accession Number” of the associated nucleic acid sequence=M74290; “Accession Number” of the associated protein sequence=P25103; cf. Takeda, Y.; Chou, K. B., Takeda, J.; Sachais, B. S. and Krause, J. E; Biochemical and Biophysical Research Communications, 179(3) (1991) 1232-1240), were incubated with a solution of the marked ligand, with the incubation mixtures containing no test substance or additions of different concentration of test substance. Then, separation of bound and free ligands was performed in each of the samples with the aid of glass-fiber filtration. The fraction remaining in the filter was washed several times with buffer solution and then the radioactivity of the fraction remaining in the filter was measured using a beta scintillation counter.
For the compounds of Examples 1 to 14, that concentration which effects half maximum displacement of the bound ligand was determined as IC50 of the respective test substance. From this, the corresponding inhibition constant (Ki value) of the test substance was calculated, and was stated as the negative common logarithm of the Ki value (=pKi value) The pKi value is a measurement of the affinity of the test substances to human NK1 receptors.

Series [2] addresses T2, human NK2 receptor (Homo sapiens, UniProt P21452).
T2 sequence (P21452 1-398): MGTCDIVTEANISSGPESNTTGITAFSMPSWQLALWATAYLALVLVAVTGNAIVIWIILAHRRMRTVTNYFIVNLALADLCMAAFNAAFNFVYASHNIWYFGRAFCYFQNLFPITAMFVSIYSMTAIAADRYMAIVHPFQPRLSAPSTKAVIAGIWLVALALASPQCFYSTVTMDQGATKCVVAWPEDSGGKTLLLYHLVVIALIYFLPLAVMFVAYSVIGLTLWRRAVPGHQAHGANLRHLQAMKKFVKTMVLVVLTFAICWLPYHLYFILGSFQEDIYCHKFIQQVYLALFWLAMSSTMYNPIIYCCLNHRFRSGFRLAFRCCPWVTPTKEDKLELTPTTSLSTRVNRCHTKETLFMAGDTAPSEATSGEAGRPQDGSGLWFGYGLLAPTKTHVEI
Briefly: Functional cellular test, Ca2+ measurement using FLIPR, NK2 (NKA stimulated CHO cells).
Method: (§4) Functional Cellular Tests of the NK1- and NK2-antagonistic Effects
(§5) Functional cellular tests of the antagonistic effect of the compounds of the present invention on the human tachykinin receptors were performed in CHO cells expressing the recombinant human NK1 or NK2 receptor. In these tests the inhibition of ligand induced increase in mobilization of intracellular calcium and the inhibition of ligand induced phosphorylation of MAPK were determined, which can be used as a measure of functional activity of tachykinin-antagonists. Additionally, the antagonistic properties of reference compounds on the different tachykinin receptors were characterized for comparison.
(§6) The effects of test compounds were assessed using Chinese hamster ovary (CHO) fibroblast cells, stably expressing cloned human NK1 or NK2 receptors. The NK receptor in coupled to Gq. The activation of the Gq protein by ligand binding to the receptor leads to a mobilization of intracellular calcium and phosphorylation of MAPK. Both systems were used to determine functional effects of the test compounds.
(§7) Ca^2+Measurements Using FLIPR for NK1 and NK2 Activity
(§8) For tests, cell were seeded 24 hours prior to the experiment into black 96-well microplates. The cell density was 2.2×10^4 cells/well. All steps were done under sterile conditions. In order to observe changes in intracellular calcium levels, cells were loaded with a calcium-sensitive dye. This dye (FLUO-4, from Molecular Probes) excites at 488 nm, and emits in the 560 nm range, only if a complex with calcium is formed. For the dye loading the growth-medium was aspirated out of the well without disturbing the confluent cell layer and 100 μl loading medium (HBSS, 4 μM FLUO-4, 0.005% (w/v) pluronic acid, 2.5 mM probenecid, 20 mM HEPES, pH 7.4) was dispensed into each well using an automatic pipettor system (Multidrop, Labsystems). Pluronic acid was added to increase dye solubility and dye uptake into the cells, whereas probenecid, an anion exchange inhibitor, was added to the loading medium to increase dye retention in the cells. The cells were incubated in a 5% CO2 incubator at 37° C. for 40 minutes. After dye loading, the cells were washed three times with wash-buffer (HBSS, 2.5 mM probenecid, 20 mM HEPES, pH 7.4) to reduce basal fluorescence. In the last washing step the buffer was aspirated and replaced with 100 μl washing buffer. […] The FLIPR setup parameters were set to 0.4 sec exposure length, filter 1, 50 μl fluid addition, pipettor height at 125 μl, dispense speed 40 μl/sec without mixing. Maximal fluorescence changes were obtained using the statistic function of the FLIPR software, and data plotted using GraphPad Prism 4. All points were expressed as a percentage inhibition of the control agonist. IC50 values were determined using sigmoidal dose-response curve fitting.

Series [3] has as its target T1, human NK1 receptor. Briefly: Functional cellular test, Ca2+ measurement using FLIPR, NK1 (substance P stimulated CHO cells).
Method: as §4, §5, §6, §7, §8
Series [4] concerns the target T2, human NK2 receptor. Briefly: Binding power to NK2 receptors in vitro ([3H]-SR 48968 displacement, CHO cell membranes). Set-up: expressed in transfected cells; host or cells: CHO cells (membrane preparation). The conditions noted are these: human NK2 receptor in CHO membranes, ligand [3H]-SR 48968, 90 min incubation; for Ki: read-out: pKi (NK2) (converted). On the procedure:
The affinity of the test substances to human NK2 receptors was measured in vitro. The ability of the test substances to displace the selective NK2 receptor antagonist SR 48968 (=saredutant) used as reference ligand from its corresponding bond was determined.
The receptor binding studies were carried out with radioactively marked [^3H]-SR 48968 (from Amersham) as ligand. For the binding test, different samples of a membrane preparation of CHO cells (=egg cells of the Chinese hamster, […]), which express the human NK2 receptor (for preparation, see N. P. Gerard et al., Journal of Biological Chemistry 265/33 (1990) 20455-20462), were incubated for 90 minutes (=min.) with a solution of the marked ligand, with the incubation mixtures containing no test substance or additions of different concentrations of test substance. Then in each case the membrane-bound ligands in the samples were separated from free ligands by filtration. The fraction remaining in the filter was washed several times with buffer solution, before its radioactivity was measured using a liquid scintillation counter. That concentration which effects half-maximum displacement of the bound reference ligand was determined as IC50 of the respective test substance. The inhibition constant (Ki value) of the test substance was calculated from the respective IC50 value, and was stated as the negative logarithmized value thereof (pKi).
If several measurements were performed, the average thereof was listed each time. The pKi value is a measurement of the affinity of the test substances to human NK2 receptors.

For another series, the target named is T3, NK1 receptors (Cavia porcellus, UniProt P30547).
T3 construct: from tissue; host or cells: whole animal: anesthetized Pirbright-White guinea pigs
T3 sequence (P30547 whole entry): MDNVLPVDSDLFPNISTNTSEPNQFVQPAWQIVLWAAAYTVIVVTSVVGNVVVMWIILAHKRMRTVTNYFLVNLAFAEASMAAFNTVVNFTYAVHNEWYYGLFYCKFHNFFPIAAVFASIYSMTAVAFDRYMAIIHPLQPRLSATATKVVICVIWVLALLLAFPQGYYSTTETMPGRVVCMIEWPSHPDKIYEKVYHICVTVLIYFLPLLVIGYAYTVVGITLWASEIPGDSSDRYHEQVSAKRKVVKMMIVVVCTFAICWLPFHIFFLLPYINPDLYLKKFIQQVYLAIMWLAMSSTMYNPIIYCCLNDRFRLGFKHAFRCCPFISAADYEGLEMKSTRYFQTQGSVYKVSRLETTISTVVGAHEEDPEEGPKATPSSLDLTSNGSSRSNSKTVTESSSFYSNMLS
Briefly: NK1-receptor-antagonistic effectiveness in vivo in anesthetized guinea pigs (NKA-induced early hypotension). The conditions noted are these: guinea pig. From the text: (§1) 6. Determination of the NK1- and NK2-receptor-antagonistic Effectiveness of the Test Substances In Vivo
(§2) The NK1- and NK2-antagonistic activities of the test substances were investigated in anesthetized guinea pigs in each case after intravenous (=i.v.) and oral (=p.o.) administration in vivo. With the present test model it is possible to detect both NK2-antagonistic effects in three different organ systems (respiratory tracts, colon and circulation) and NK1-antagonistic effects (rapid drop in blood pressure) in an animal simultaneously.
Pirbright-White guinea pigs having a body weight of 500-700 g were anesthetized with ketamine/xylazine (67/13 mg/kg subcutaneously, initial dose, further doses administered as required). […] The animals were artificially ventilated via a tracheal cannula and the respiratory pressure was recorded by a pressure transducer. […] Blood pressure, heart rate, respiratory pressure and colonic pressure were measured continuously for each animal and plotted on a recorder and by a digital data-processing system. […]
(§3) The antagonistic effects of the test substances were then determined as “area under the curve” (“AUC”) over the investigation period after administration of the test substances (1-180 min after administration) and the ED50 values after oral administration obtained therefrom were plotted in Table 7.

Another series concerns the target T4, NK2 receptors (Cavia porcellus, UniProt Q64077).
T4 construct: from tissue; host or cells: whole animal: anesthetized Pirbright-White guinea pigs
T4 sequence (Q64077 1-402): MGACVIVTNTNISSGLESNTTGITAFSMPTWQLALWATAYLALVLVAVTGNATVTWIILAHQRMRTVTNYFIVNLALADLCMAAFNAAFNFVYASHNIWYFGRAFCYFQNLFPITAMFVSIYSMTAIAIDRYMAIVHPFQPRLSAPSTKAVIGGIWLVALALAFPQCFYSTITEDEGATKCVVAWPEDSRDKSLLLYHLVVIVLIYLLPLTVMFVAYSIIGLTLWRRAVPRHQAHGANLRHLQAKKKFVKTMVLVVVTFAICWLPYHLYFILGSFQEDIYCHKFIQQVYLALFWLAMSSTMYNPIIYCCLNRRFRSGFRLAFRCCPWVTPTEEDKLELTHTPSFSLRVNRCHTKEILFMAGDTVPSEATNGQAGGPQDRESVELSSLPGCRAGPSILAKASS
The experiment in a line: NK2-receptor-antagonistic effectiveness in vivo in anesthetized guinea pigs (NKA-induced late hypotension, bronchoconstriction, colonic motility). The conditions noted are these: guinea pig.
From the text: as §1, §2
Pirbright-White guinea pigs having a body weight of 500-700 g were anesthetized with ketamine/xylazine (67/13 mg/kg subcutaneously, initial dose, further doses administered as required). The animals were provided with an intravenous catheter in order to administer the substance and an intra-arterial catheter to measure the blood pressure. The animals were artificially ventilated via a tracheal cannula and the respiratory pressure was recorded by a pressure transducer. A balloon was introduced into the distal colon of the animals for manometric recording of colon motility by a pressure transducer. Blood pressure, heart rate, respiratory pressure and colonic pressure were measured continuously for each animal and plotted on a recorder and by a digital data-processing system. […] The second phase of delayed hypotension (=phase of maximum hypotension after 2-5 min.) on the other hand is mediated via NK2 receptors, since they can be blocked by specific NK2 receptor antagonists.
These ED50 values obtained from cumulative dose effect curves are plotted in Table 6.
as §3

Where [5] appears, read: i.v., NKA stimulus 1 min after dosing.

For the molecule `CC(=O)OC[C@@H](OC(C)=O)[C@H](c1ccco1)N1CCN(CC[C@H](CN(C)C(=O)c2cc(C#N)cc3ccccc23)c2ccc(Cl)c(Cl)c2)CC1` [Compound 27, (2S,3R)-2-(acetyloxy)-3-{4-[(3S)-4-[3-cyano-1-naphthoyl)(methyl)amino]-3-(3,4-dichlorophenyl)butyl]piperazin-1-yl}-3-(2-furyl)propyl acetate], the figures for the Ki on human NK1 receptor [1] and on human NK2 receptor [4] were 6.31 nM and 25.1 nM, respectively. In addition, the Kb at human NK2 receptor [2] was 7.94 nM; on human NK1 receptor [3], 0.631 nM.

`CN(C[C@@H](CCN1CCN([C@@H](c2cccs2)[C@H](O)CO)CC1)c1ccc(Cl)c(Cl)c1)C(=O)c1cc(C#N)cc2ccccc12` [Compound 9, 3-cyano-N-[(2S)-2-(3,4-dichlorophenyl)-4-{4-[(1R,2S)-2,3-dihydroxy-1-(2-thienyl)propyl]piperazin-1-yl}butyl]-N-methyl-1-naphthamide] gave a Kb at human NK2 receptor [2] of 10 nM.

Turning to `CN(C[C@@H](CCN1CCN([C@@H](c2ccco2)[C@H](O)CO)CC1)c1ccc(Cl)c(Cl)c1)C(=O)c1cc(C#N)cc2ccccc12` [Compound 1, 3-cyano-N-[(2S)-2-(3,4-dichlorophenyl)-4-{4-[(1R,2S)-1-(2-furyl)-2,3-dihydroxy-propyl]-piperazin-1-yl}butyl]-N-methyl-1-naphthamide], the melting point – broadly, the temperature, or range, at which the solid turns liquid – lay within 140 to 142 °C. Further, on NK1 receptors (oral), the “oral activity as NK1 receptor antagonist (in words)” value is “active orally”. Also, the “oral activity as NK2 receptor antagonist (in words)” value at NK2 receptors (oral) was “active orally”.

For the molecule `CN(CC(CCN1CCN(C(c2ccco2)C(O)C(O)CO)CC1)c1ccc(Cl)c(Cl)c1)C(=O)c1cc(C#N)cc2ccccc12` (stereo not shown) [Compound 7], the “pKi (NK1)” value on human NK1 receptor [1] turned out to be 8.3. Also, at NK1 receptors (setting [5]), the “ED50 iv after 1 min (cumulative), NK1 (early hypotension)” value was 0.052 µmol/kg. Also, the “pA2 (NK2)” value on human NK2 receptor [2] (CHO cells with human NK2 receptor, FLIPR Ca2+, NKA 10^-7 M) is 8.1. Also, at human NK1 receptor [3] (CHO cells with human NK1 receptor, FLIPR Ca2+, substance P 10^-8 M), the “pA2 (NK1)” value worked out at 8.8. On human NK2 receptor [4], the “pKi (NK2)” value is reported as 7.4. At NK2 receptors (setting [5]), the “ED50 iv after 1 min (cumulative), NK2 (bronchoconstriction)” value is 0.207 µmol/kg; the “ED50 iv after 1 min (cumulative), NK2 (colonic motility)” value came to 0.309 µmol/kg; the “ED50 iv after 1 min (cumulative), NK2 (late hypotension)” value is 0.338 µmol/kg.

In the case of `COc1ccc([C@@H]([C@H](O)CO)N2CCN(CC[C@H](CN(C)C(=O)c3cc(C#N)cc4ccccc34)c3ccc(Cl)c(Cl)c3)CC2)cc1` [Compound 16, 3-cyano-N-[(2)-2-(3,4-dichlorophenyl)-4-{4-[(1S,2S)-2,3-dihydroxy-1-(4-methoxyphenyl)propyl]piperazin-1-yl}butyl]-N-methyl-1-naphthamide], the Ki at human NK1 receptor [1] was 1 nM; at human NK2 receptor [4], 794 nM. Besides, the Kb on human NK2 receptor [2] is 0.794 nM; on human NK1 receptor [3], 0.501 nM.

Take `CC(=O)OCC(O)C(Cc1ccccc1)N1CCN(CCC(CN(C)C(=O)c2cc(C#N)cc3ccccc23)c2ccc(Cl)c(Cl)c2)CC1` (stereo not shown) [Compound 26]: the values for the Ki on human NK1 receptor [1] and at human NK2 receptor [4] were 7.94 nM and 100 nM, respectively. Moreover, the figures for the Kb at human NK2 receptor [2] and on human NK1 receptor [3] were 39.8 nM and 10 nM, respectively.

`CN(CC(CCN1CCN(C(Cc2ccccc2)C(O)CO)CC1)c1ccc(Cl)c(Cl)c1)C(=O)c1cc(C#N)cc2ccccc12` (stereo not shown) [Compound 24]: the Ki is 10 nM at human NK1 receptor [1] and 31.6 nM on human NK2 receptor [4]. Also, the Kb at human NK2 receptor [2] was 15.8 nM; at human NK1 receptor [3], 7.94 nM.
